# Laboratory results taken from patent publication US20040009194A1, “Methods, and compositions for a therapeutic antigen presenting cell vaccine for treatment of immunodeficiency virus” (priority 2002, published 2004).
# Experiments:
# [1] = system: autologous PBL; experiment: Proliferation of patient T cells stimulated with inactivated-virus-pulsed autologous DC ([methyl-3H]thymidine incorporation); format: cell-based, human; conditions: indinavir 10 nM (nonantiviral concentration); P<0.001
# Text: To mimic the antigen capture by DC in peripheral tissues, immature DC (i.e., competent in antigen capture) generated by culturing patient blood monocytes with GM-CSF and IL-4 for 5 days were pulsed with autologous viral isolates inactivated by 2,2′ dithiodipyridine or aldrithiol-2 (AT-2), which preserves the intact native conformation and fusogenic activity of HIV Env protein. As will be appreciated by those skilled in the art, there are a number of mechanisms suitable to inactivate a virus, and any of these methods can be used so long as the method preserves the intact native conformation and fusogenic activity of HIV Env protein. To model the presentation of antigens in lymphoid tissue, virus-pulsed DC were matured in the presence of TNF-α and IFN-α for an additional 3 days to maximize their T-cell-stimulatory activity. Matured virus-pulsed DC was then used to stimulate autologous PBL at a stimulator/responder ratio of 1:3 in the absence or presence of PI at a nonantiviral concentration (10 nM indinavir). By day 7 of coculture, PBL were restimulated with the same virus-pulsed DC for an additional 7 days. At day 14, proliferation was measured by incubating PBL with virus-pulsed DC at stimulator/responder ratios of 1:3 to 1:100. […] HIV-1 gag-specific CTL activity following stimulation with virus-pulsed autologous DC.
# [2] = system: autologous B-LCL infected by recombinant vaccinia virus containing a gag gene of HIV-1; format: cell-based, human
smiles,measurement,setting,value
CC(C)(C)NC(=O)[C@@H]1CN(Cc2cccnc2)CCN1C[C@@H](O)C[C@@H](Cc1ccccc1)C(=O)N[C@H]1c2ccccc2C[C@H]1O [indinavir],effect of PI on DC-mediated T-cell proliferation,[1],significantly enhanced
same,effect of indinavir on gag-specific CTL activity,[2],significantly enhanced
